Assay results taken from patent publication US12402629B2, “Aspergillus terreus strain and composition for controlling bacterial plant diseases using strain or culture filtrate thereof” (Andong National University Industry-Academic Cooperation …, priority 2022, dated 2025).
“Also recorded” adds a separate entry of the source.

Assays:
[1] = test system: Dickeya chrysanthemi; test: Pathogen inoculation experiment on potato (potato soft rot control effect); format: in vivo; settings: potato treated at the same time with D.c. suspension 2×10^6 cfu/ml and 400 ppm MPP (FIG. 6)
Method: In order to test whether the culture filtrate of the Aspergillus terreus ANU-301 strain of the present disclosure has a control effect on potato soft rot caused by Dickeya chrysanthemi bacteria, a pathogen inoculation experiment was performed (FIG. 3).
In potato plants inoculated with Dickeya chrysanthemi bacteria (D.c.), browning progressed at the inoculation site, and symptoms of soft rot disease were confirmed.
A pathogen inoculation experiment was conducted to test whether the MPP component present in the culture filtrate of the Aspergillus terreus ANU-301 strain of the present disclosure is effective in controlling potato soft rot disease caused by Dickeya chrysanthemi bacteria (FIG. 6). In potato plants inoculated with Dickeya chrysanthemi bacteria (D.c.), browning progressed at the inoculation site, and symptoms of soft rot disease were confirmed. […] Hereinafter, the present disclosure will be described in more detail with reference to Examples. However, these examples are presented merely to describe the present disclosure in more detail, and the scope of the present disclosure is not limited to these examples.
In order to evaluate the effect of the ANU-301 strain culture filtrate on potato soft rot inhibition, the culture filtrate was prepared as follows.
The ANU-301 strain was inoculated into sterilized potato dextrose broth (PDB) and cultured at 25° C. for 5 days. […]

[2] = test system: Dickeya chrysanthemi; test: Disc diffusion assay on NA medium; format: cell-based; settings: paper filter disk wetted with 400 ppm of MPP, NA medium (FIG. 5)
Method: To this end, the NA medium (Nutrient agar medium: peptone 5 g, beef extract 1.5 g, yeast extract 1.5 g, NaCl 5 g & agar 15 g/1 L) was smeared with Dickeya chrysanthemi bacteria. After placing a paper filter disk in the center of the medium, 10 μL of culture extract and 400 ppm of MPP were wetted therein, respectively, and the result of culturing the bacteria was observed.

CC(C)(c1ccccc1)c1ccc(O)c(C(C)(C)c2ccccc2)c1 [MPP, 2,4-bis(1-methyl-1-phenylethyl)-phenol]
soft rot symptoms (disease control effect) [1]: soft rot symptoms were suppressed; also recorded: showed a disease inhibitory effect | bacterial growth / clear zone around the disk [2]: a clear zone was formed
